Experimental data as given in PMC10671360, “In Silico and In Vitro Study towards the Rational Design of 4,4′-Disarylbisthiazoles as a Selective α-Synucleinopathy Biomarker” (International Journal of Molecular Sciences, 2023).
“Also recorded” adds a separate entry of the source.

Key:
α-syn = α-syn (Homo sapiens, UniProt P37840); set-up: method as in PMID 12657667, PMID 32098280, PMID 18221373; conditions: [^3H]PiB; cited from earlier work
tau = tau (Homo sapiens, UniProt P10636); set-up: method as in PMID 12657667, PMID 32098280, PMID 18221373; conditions: [^3H]PiB; cited from earlier work
[1] = target: T1, recombinant α-syn fibrils (Homo sapiens, UniProt P37840); test: Competition binding assay against [^3H]PiB, α-syn fibrils; conditions: for Selectivity Aβ/α-syn / Selectivity tau/α-syn: ratio of Ki, [^3H]PiB was used
T1 construct: made in house

[2] = set-up: method as in PMID 35572127; conditions: cited from earlier work
tau fibrils = tau fibrils (Homo sapiens, UniProt P10636); test: Competition binding assay against [^3H]PiB, tau fibrils
Description: Recombinant tau monomer (R&D systems, Minneapolis, MN, USA) was dissolved in 20 mM of Tris HCl, pH 8.0, 100 mM of NaCl, 25 μM of low-MW heparin, and 0.5 mM of dithiothreitol to a final concentration of 300 µg/mL. The mixture was incubated with shaking at 900 rpm at 37 °C for 48 h. To separate the non-aggregated monomers from the formed fibrils, the reaction mixture was centrifuged at 12,000× g for 5 min, and the resulting pellet was washed three times with 500 μL of 20 mM Tris-HCl, pH 7.4. The supernatants from the three centrifugation steps were combined, and the concentration of the monomer in the resulting supernatant was determined in a BCA assay(Thermo Fisher Scientific, Waltham, MA, USA) (with a BSA standard curve). Determination of the concentration of fibrils formed was carried out by subtracting the amount of tau peptide monomer in the supernatant from the initial amount used for fibrillation. The pellets of the fibrils obtained above (Section 4.2.1) were resuspended in 20 mM of Tris-HCl, pH 7.4 and diluted as needed for the binding assays. A fixed concentration of [^3H]DCVJ (10 nM) and α-synuclein aggregates (125 nM), prepared as described above (Section 4.2.3), was used with different final concentrations of the DABTAs from 0.01 to 100 nM (see SI Figure S1). The experiment was carried out in quintuplicate for each concentration. The mixture was incubated for 2 h in a final volume of 200 μL per well after dilution with 20 mM of Tris-HCl, pH 7.4. The incubated mixtures were filtered through a Perkin Elmer GF/B glass filter via a TOMTEC cell harvester and immediately washed thrice with 1 mL of deionized water. The filters containing the bound ligands were dried and afterwards mixed with 3 mL of BetaPlate Scint solution (Perkin Elmer Life Sciences, Waltham, MA, USA) and left there for 2 h before counting in a Wallac 1450 MicroBeta TriLux Liquid Scintillation Counter (PerkinElmer Life Sciences, Waltham, MA, USA). For the determination of the inhibition constants, data were analyzed using GraphPad Prism software (version 7.0) to obtain IC50 values by fitting the data to the equation Y = bottom + (top − bottom)/(1 + 10(x − log IC50)). Ki values were calculated from IC50 values using the equation Ki = IC50/(1 + [radioligand]/Kd). […] Further protocol was carried out as for [^3H]DCVJ (see SI Figure S3). […] Further procedures followed the same already described in Section 4.2.3.1 (See SI Figure S4).

Aβ1−42 fibrils = target: T2, Aβ1−42 fibrils (Homo sapiens, UniProt P05067); test: Competition binding assay against [^3H]PiB, Aβ1−42 fibrils; conditions: read-out: Ki Aβ
T2 construct: 1 mg of β-amyloid1–42 peptide (Abcam, Cambridge, UK); purchased Abcam
Description: After the dissolution of 1 mg of β-amyloid1–42 peptide (Abcam, Cambridge, UK) in 50 μL of DMSO, 925 μL of Milli-Q® water was added to it, and the mixture was stirred. Finally, 25 μL of 1M Tris HCl, pH 7.4 was added to bring the final peptide concentration to 1 mg/mL. The mixture was then left to incubate at 37 °C for 30 h with shaking at 900 rpm. To separate the non-aggregated monomers from the formed fibrils, the reaction mixture was centrifuged at 12,000× g for 5 min, and the resulting pellet was washed three times with 500 μL of 20 mM Tris-HCl, pH 7.4. The supernatants from the three centrifugation steps were combined, and the concentration of the monomer in the resulting supernatant was determined in a BCA assay (Thermo Fisher Scientific, Waltham, MA, USA) (with a BSA standard curve). Determination of the concentration of fibrils formed was carried out by subtracting the amount of β-amyloid1−42 peptide monomer in the supernatant from the initial amount used for fibrillation.
(§1) The pellets of the fibrils obtained above (Section 4.2.1) were resuspended in 20 mM of Tris-HCl, pH 7.4 and diluted as needed for the binding assays.
(§2) A fixed concentration of [^3H]DCVJ (10 nM) and α-synuclein aggregates (125 nM), prepared as described above (Section 4.2.3), was used with different final concentrations of the DABTAs from 0.01 to 100 nM (see SI Figure S1). The experiment was carried out in quintuplicate for each concentration. The mixture was incubated for 2 h in a final volume of 200 μL per well after dilution with 20 mM of Tris-HCl, pH 7.4. The incubated mixtures were filtered through a Perkin Elmer GF/B glass filter via a TOMTEC cell harvester and immediately washed thrice with 1 mL of deionized water. The filters containing the bound ligands were dried and afterwards mixed with 3 mL of BetaPlate Scint solution (Perkin Elmer Life Sciences, Waltham, MA, USA) and left there for 2 h before counting in a Wallac 1450 MicroBeta TriLux Liquid Scintillation Counter (PerkinElmer Life Sciences, Waltham, MA, USA). For the determination of the inhibition constants, data were analyzed using GraphPad Prism software (version 7.0) to obtain IC50 values by fitting the data to the equation Y = bottom + (top − bottom)/(1 + 10(x − log IC50)). Ki values were calculated from IC50 values using the equation Ki = IC50/(1 + [radioligand]/Kd). […] Further protocol was carried out as for [^3H]DCVJ (see SI Figure S3).
Further procedures followed the same already described in Section 4.2.3.1 (See SI Figure S4).

[3] = target: T1, recombinant α-syn fibrils; test: Competition binding assay against [^3H]DCVJ, α-syn fibrils; conditions: ratio of Ki, [^3H]DCVJ was used
Description: The incubation of purified recombinant α-synuclein monomer (10 mg/mL) obtained as described by Uzuegbunam was carried out in PBS (pH 7.4) at 37 °C. The solution was left shaking at 900 rpm in an Eppendorf Thermomixer for up to 84 h. Determination of the concentration of the formed fibrils (α-syn) was carried out following the centrifugation of the reaction vial at 12,000× g for 5 min. The pellet obtained was washed thrice with 20 mM of Tris-HCl, pH 7.4. The supernatants from the three centrifugation steps were combined, and the concentration of the monomer in the resulting supernatant was determined in a BCA assay (Thermo Fisher Scientific, Waltham, MA, USA) (with a BSA standard curve). Determination of the concentration of α-syn was carried out by subtracting the amount of α-synuclein monomer in the supernatant from the initial amount used for fibrillation.
as §1, §2

[4] = Solubility in the incubation medium of the binding assays; assay type: physicochemical; conditions: incubation buffer of the binding assays

T2 sequence (P05067 672-713): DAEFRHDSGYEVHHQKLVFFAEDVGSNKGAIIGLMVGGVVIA
Sequence of tau fibrils (P10636 2-758): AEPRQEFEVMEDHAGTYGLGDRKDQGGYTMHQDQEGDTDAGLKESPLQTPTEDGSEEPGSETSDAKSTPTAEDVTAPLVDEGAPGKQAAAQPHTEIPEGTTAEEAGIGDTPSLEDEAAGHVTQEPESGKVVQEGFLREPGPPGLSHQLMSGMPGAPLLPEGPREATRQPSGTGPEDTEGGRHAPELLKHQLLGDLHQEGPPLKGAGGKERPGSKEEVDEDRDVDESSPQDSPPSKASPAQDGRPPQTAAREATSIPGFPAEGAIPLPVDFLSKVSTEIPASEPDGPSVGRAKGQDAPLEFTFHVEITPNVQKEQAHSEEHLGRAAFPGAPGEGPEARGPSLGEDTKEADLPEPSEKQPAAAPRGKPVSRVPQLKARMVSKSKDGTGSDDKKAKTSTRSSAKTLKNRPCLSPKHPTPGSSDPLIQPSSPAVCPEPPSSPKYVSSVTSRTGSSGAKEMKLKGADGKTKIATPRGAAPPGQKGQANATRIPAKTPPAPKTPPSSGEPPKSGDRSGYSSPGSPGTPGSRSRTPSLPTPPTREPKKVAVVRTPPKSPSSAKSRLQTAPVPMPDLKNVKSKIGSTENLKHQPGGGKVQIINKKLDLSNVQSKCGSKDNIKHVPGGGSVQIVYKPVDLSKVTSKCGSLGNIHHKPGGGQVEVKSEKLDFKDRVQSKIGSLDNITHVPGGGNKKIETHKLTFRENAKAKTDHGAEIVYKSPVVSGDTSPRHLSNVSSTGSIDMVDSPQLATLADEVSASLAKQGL
Sequence of tau (P10636 2-758): as above

SMILES	Ki [1]	Selectivity Aβ/α-syn [1]	Selectivity tau/α-syn [1]	brain uptake and washout [2]	Ki (Aβ1−42 fibrils)	Selectivity Aβ/α-syn [3]	Selectivity tau/α-syn [3]	solubility in the incubation medium [4]	further results
[3H]C([3H])([3H])Nc1ccc(-c2nc3ccc(O)cc3s2)cc1 [[^3H]PiB]									Kd (α-syn): 4.9 nM; Kd (tau): 117 nM
Fc1ccc(-c2csc(-c3nc(-c4ccc5c(c4)OCO5)cs3)n2)cn1 [d6, 4-(Benzo[d][1,3]dioxol-5-yl)-4′-(6-fluoropyridin-3-yl)-2,2′-bithiazole]	2.51 nM	60.1	318.2	excellent brain uptake and washout	151 nM	196.0	798.3		Ki (tau fibrils): 799 nM
Fc1ccc(-c2csc(-c3nc(-c4cnc5c(c4)OCO5)cs3)n2)cn1 [d8, 6-(4′-(6-Fluoropyridin-3-yl)-[2,2′-bithiazol]-4-yl)-[1,3]dioxolo[4,5-b]pyridine]	1.01 nM	125.8	>990.1	excellent brain uptake and washout	127 nM	3863.0	>10,000.0		
FCCOCCOc1cnc(-c2csc(-c3nc(-c4cnc5c(c4)OCO5)cs3)n2)nc1 [f8, 6-(4′-(5-(2-(2-Fluoroethoxy)ethoxy)pyrimidin-2-yl)-[2,2′-bithiazol]-4-yl)-[1,3]dioxolo[4,5-b]pyridine]	2.3 nM							low solubility; also recorded: decreased solubility	
COc1ccc(-c2csc(-c3nc(-c4cnc5c(c4)OCO5)cs3)n2)cc1OC [f18, 6-(4′-(3,4-Dimethoxyphenyl)-[2,2′-bithiazol]-4-yl)-[1,3]dioxolo[4,5-b]pyridine]	4.99 nM							low solubility; also recorded: decreased solubility	
ICCOCCOCCOc1cnc(-c2csc(-c3nc(-c4cnc5c(c4)OCO5)cs3)n2)nc1 [h13, 6-(4′-(5-(2-(2-(2-Iodoethoxy)ethoxy)ethoxy)pyrimidin-2-yl)-[2,2′-bithiazol]-4-yl)-[1,3]dioxolo[4,5-b]pyridine]	1.17 nM							low solubility; also recorded: decreased solubility	
